System: M. tuberculosis clinical isolates
Assay: MIC against clinical strains (BACTEC MGIT 960 System)
Assay type: cell-based
Conditions: Mycobacterium tuberculosis
[1] = strain 123, resistant clinical isolate, resistance HSERZKTACp
[2] = strain 139, resistant clinical isolate, resistance HSERZKTACp
[3] = strain 141, resistant clinical isolate, resistance HRT
[4] = strain 167, resistant clinical isolate, resistance HSRZ
[5] = strain 175, resistant clinical isolate, resistance S
[6] = strain 198, resistant clinical isolate, resistance H
[7] = strain 242, resistant clinical isolate, resistance H
[8] = strain 330, resistant clinical isolate, resistance HSR (Tables 2B, 2D)
[9] = strain 1672, resistant clinical isolate, resistance HSRZ
[10] = strain 1819, resistant clinical isolate, resistance HSRZ

**Q.** Which results are given for Cl.NC[C@H]1OB2OCCOc3ccc(Br)c1c32 [Example 2, (S)-(3-bromo-7,8-dihydro-2H-1,6,9-trioxa-9a-borabenzo[cd]azulen-2-yl)methanamine hydrochloride]?
**A.** MIC [1]: 0.08 µM; MIC [2]: 0.08 µM; MIC [3]: 0.08 µM; MIC [4]: 0.08 µM; MIC [5]: 0.08 µM; MIC [6]: 0.08 µM; MIC [7]: 0.08 µM; MIC [8]: 0.08 µM; MIC [9]: 0.08 µM; MIC [10]: 0.04 µM

**Q.** Cl.NC[C@H]1OB2OCCOc3ccc(Cl)c1c32 [Example 4, (S)-(3-chloro-7,8-dihydro-2H-1,6,9-trioxa-9a-borabenzo[cd]azulen-2-yl)methanamine hydrochloride] was tested. Which MIC (strain 106, resistant clinical isolate, resistance HR) did it give?
**A.** 0.16 µM

**Q.** What about the MIC [1] of the same compound?
**A.** 0.16 µM

**Q.** What about the MIC [2] of the same compound?
**A.** 0.08 µM

**Q.** What about the MIC [3] of the same compound?
**A.** 0.08 µM

**Q.** And the MIC [4]?
**A.** 0.08 µM

**Q.** What about the MIC [5] of the same compound?
**A.** 0.08 µM

**Q.** What about the MIC (strain 192, resistant clinical isolate, resistance HS) of the same compound?
**A.** 0.31 µM

**Q.** And the MIC [6]?
**A.** 0.08 µM

**Q.** And the MIC (strain 201, resistant clinical isolate, resistance HRE)?
**A.** 0.08 µM

**Q.** And the MIC (strain 202, resistant clinical isolate, resistance S)?
**A.** 0.08 µM

**Q.** And the MIC [7]?
**A.** 0.08 µM

**Q.** What about the MIC (strain 254, resistant clinical isolate, resistance H) of the same compound?
**A.** 0.16 µM

**Q.** What about the MIC (strain 277, resistant clinical isolate, resistance H) of the same compound?
**A.** 0.08 µM

**Q.** And the MIC (strain 297, resistant clinical isolate, resistance HSR)?
**A.** 0.16 µM

**Q.** And the MIC (strain 330, resistant clinical isolate, resistance HS)?
**A.** 0.08 µM

**Q.** What about the MIC [8] of the same compound?
**A.** 0.08 µM

**Q.** What about the MIC (strain 330, resistant clinical isolate, resistance RSR) of the same compound?
**A.** 0.04 µM

**Q.** What about the MIC (strain 409, resistant clinical isolate, resistance HR) of the same compound?
**A.** 0.08 µM

**Q.** What about the MIC (strain 415, resistant clinical isolate, resistance HRT) of the same compound?
**A.** 0.08 µM

**Q.** And the MIC (strain 514, resistant clinical isolate, resistance HSRT)?
**A.** 0.08 µM

**Q.** What about the MIC (strain 562, resistant clinical isolate, resistance HSERZKTA) of the same compound?
**A.** 0.08 µM

**Q.** What about the MIC (strain 605, resistant clinical isolate, resistance HSERZACp) of the same compound?
**A.** 0.16 µM

**Q.** What about the MIC (strain 670, resistant clinical isolate, resistance HRZ) of the same compound?
**A.** 0.04 µM

**Q.** And the MIC (strain 709, resistant clinical isolate, resistance S)?
**A.** 0.08 µM

**Q.** And the MIC (strain 732, resistant clinical isolate, resistance S)?
**A.** 0.08 µM

**Q.** What about the MIC [9] of the same compound?
**A.** 0.08 µM

**Q.** What about the MIC [10] of the same compound?
**A.** ≤ 0.02 µM

**Q.** And the MIC (strain CR, resistant clinical isolate, resistance HSERZ)?
**A.** 0.31 µM

**Q.** For NC[C@H]1OB2OCCOc3ccc(Cl)c1c32 [Example G4-Cl], which MIC (for more than 85 clinical isolate strains of 97 tested (sensitive and resistant)) is on record?
**A.** < 1 µM
